The text below walks through data of patent publication US5652232A, “Benzolactam derivatives” (Shionogi & Co., Ltd., priority 1993, dated 1997).

In brackets after ≈: the same amount, converted by molar mass. Read-outs that look alike come from different tables or passages of the source.

Data set [1] can be described thus: Cytotoxicity against MT-4 cells (MTT). Type of data set: cell-based. As to conditions: human. As to the method: (§1) (A) A human T-cell strain MOLT-4 clone 8, persistently infected with HIV (HIV-1IIIB strain), was cultured in RPMI-1640 medium supplemented with 10% fetal bovine serum. The culture supernatant was then filtered and stored at -80° C. after a measurement of viral titer. Each of test compounds was diluted with the above culture medium so as to be a predetermined concentration, and 50 μl of the solution was added to each of wells of a 96-well microtiter plate. Then, after the addition of each 100 μl of MT-4 cell suspension (3.5×10^4 cells) to the well, the above-prepared HIV-containing supernatant was diluted with the above medium and 50μl of the dilution (60 plaque forming units) was added to each well.
(§2) (B) After incubation of the 96-well microtiter plate in a CO2 -incubator at 37° C. for 5 days, 30 μl of MTT [3-(4,5-dimethylthiazole-2-yl)-2,5-diphenyltetrazorium bromide, 5 mg/ml, PBS] was added to each well and incubation was continued for 1 hour.
(§3) Cells having survived reduced MTT to precipitate formazan. 150 μl of culture supernatant was removed from each well and 150 μl of a solubilizing solution (10% Triton X-100 and isopropanol supplemented with 0.4% (V/V) HCl) was added to each well and the plate was shaken by using a plate mixer to dissolve the formazan. The dissolved formazan was measured by O.D. at 540 nm and the results were compared with referenced control. EC50 (μg/ml) was defined as a concentration of the compound that achieved 50% inhibition of cytotoxicity by the virus. DMSO was used as a solvent and the tested concentrations were 0.0001-10 μg/ml.
Cytotoxicities of the test compounds against the MT-4 cells were measured in the same manner as step (A) of the above-described antiviral activity test, provided that 50 μl of the culture medium was added to each well instead of the HIV-containing supernatant (virus solution), which was followed by the same treatment as step (B). CC50 (μg/ml) was defined as a concentration of test compound inducing 50% cytotoxicity.

The subject of data set [2] is HIV (HIV-1IIIB strain). In words: Antiviral activity: inhibition of HIV cytotoxicity in MT-4 cells (MTT). Type of data set: cell-based. As to conditions: Human immunodeficiency virus 1, MT4, 120 h, read-out: EC50: concentration of the compound that achieved 50% inhibition of cytotoxicity by the virus. The method, then: as §1, §2, §3
Where [3] appears, read: MT-4 cells, no virus, 5 days at 37° C., MTT, read-out: CC50: concentration of test compound inducing 50% cytotoxicity.

As for `CC(C)[C@H]1C(=O)N[C@H](CO)Cc2ccccc2N1C` (relative stereo) [BL-V8], the CC50 at 120 h in data set [1] (setting [3]) came out at 10 µg/mL (≈ 38.1 µM). Further, the EC50 in data set [2] lay within 0.1 to 1 µg/mL (≈ 0.381 to 3.81 µM).
`CCCCCCCCCCc1ccc2c(c1)N(C)[C@H](C(C)C)C(=O)N[C@H](CO)C2` [(+)-epi-BL-V8-310]: the CC50 at 120 h in data set [1] (setting [3]) lay within 5 to 10 µg/mL (≈ 12.4 to 24.8 µM). For the same compound, in data set [2], the EC50 turned out to be 0.1 µg/mL (≈ 0.248 µM).
In the same order, the values of `CCCCCCCCCCc1ccc2c(c1)N(C)[C@@H](C(C)C)C(=O)N[C@@H](CO)C2` (relative stereo) [(±)-epi-BL-V8-310] are 1 µg/mL (≈ 2.48 µM) and 0.13 µg/mL (≈ 0.323 µM).
On to `CC(C)[C@H]1C(=O)N[C@@H](CO)CCCc2ccccc2N1C` (relative stereo) [epi-BL-V10], for which, in data set [1] (mt-4 cells), the CC50 at 120 h was over 10 µg/mL. In addition, the EC50 in data set [2] is over 10 µg/mL.
As for `CCCCCCCCCCc1ccc2c(c1)N(C)[C@H](C(C)C)C(=O)N[C@@H](CO)C2` [(+)-BL-V8-310], the CC50 at 120 h in data set [1] (setting [3]) fell in the range of 5 to 10 µg/mL (≈ 12.4 to 24.8 µM). Also, in data set [2], the EC50 lay in the range of 0.05 to 0.1 µg/mL (≈ 0.124 to 0.248 µM).
On the same counts, the results for `CC(C)[C@H]1C(=O)N[C@@H](CO)Cc2ccccc2N1C` (relative stereo) [epi-BL-V8] are 10 µg/mL (≈ 38.1 µM) and 2.5 to 5 µg/mL (≈ 9.53 to 19.1 µM).
Consider `CCCCCCCCCCc1ccc2c(c1)N(C)[C@H](C(C)C)C(=O)N[C@H](CO)CC2` (relative stereo) [epi-BL-V9-310], for which the CC50 at 120 h in data set [1] (setting [3]) was 5 to 10 µg/mL (≈ 12 to 24 µM). In addition, the EC50 in data set [2] was determined as 0.3 µg/mL (≈ 0.72 µM).
In the same order, the values of `CCCCCCCCCCc1ccc2c(c1)N(C)[C@@H](C(C)C)C(=O)N[C@H](CO)C2` [(-)-BL-V8-310] are 5 to 10 µg/mL (≈ 12.4 to 24.8 µM) and 0.003 µg/mL (≈ 0.00745 µM).
On the same counts, the results for `CC(C)[C@H]1C(=O)N[C@@H](CO)CCc2ccccc2N1C` (relative stereo) [epi-BL-V9] are over 10 µg/mL and over 10 µg/mL.
For the compound `CC(C)[C@@H]1C(=O)N[C@H](CO)Cc2cc3c(cc2N1C)C(C)(C)CCC3(C)C` (relative stereo) [epi-BL-V8-23T], the CC50 at 120 h in data set [1] (setting [3]) lay within 1 to 10 µg/mL (≈ 2.68 to 26.8 µM).
As to `CCCCCCCCCCc1ccc2c(c1)N(C)[C@@H](C(C)C)C(=O)N[C@H](CO)CC2` (relative stereo) [BL-V9-310], the CC50 at 120 h in data set [1] (setting [3]) came out at 10 µg/mL (≈ 24 µM). Further, in data set [2], the EC50 was in the range of 2.5 to 5 µg/mL (≈ 6 to 12 µM).
With `CC(C)[C@H]1C(=O)N[C@H](CO)Cc2cc3c(cc2N1C)C(C)(C)CCC3(C)C` (relative stereo) [BL-V8-23T], the CC50 at 120 h in data set [1] (setting [3]) was 1 to 10 µg/mL (≈ 2.68 to 26.8 µM).
In turn, `CC(C)[C@H]1C(=O)N[C@H](CO)CCCc2ccccc2N1C` (relative stereo) [BL-V10] displayed a CC50 at 120 h in data set [1] (mt-4 cells) of over 10 µg/mL. Moreover, the EC50 in data set [2] was over 10 µg/mL.
On to `CC(C)[C@H]1C(=O)N[C@H](CO)CCc2ccccc2N1C` (relative stereo) [BL-V9], for which the CC50 at 120 h in data set [1] (setting [3]) is over 10 µg/mL. Also, in data set [2], the EC50 is over 10 µg/mL.
For the compound `CCCCCCCCCCc1ccc2c(c1)N(C)[C@@H](C(C)C)C(=O)N[C@@H](CO)C2` [(-)-epi-BL-V8-310], in data set [1] (setting [3]), the CC50 at 120 h is 2.5 to 5 µg/mL (≈ 6.21 to 12.4 µM). Besides, the EC50 in data set [2] amounted to 0.16 µg/mL (≈ 0.397 µM).
In the same order, the values of `CCCCCCCCCCc1ccc2c(c1)N(C)[C@@H](C(C)C)C(=O)N[C@H](CO)C2` (relative stereo) [(±)-BL-V8-310] are 1 µg/mL (≈ 2.48 µM) and 0.001 to 0.01 µg/mL (≈ 0.00248 to 0.0248 µM).
